Assay results taken from patent US20250092065A1, “2-(INDAZOL-5-YL)-6-(PIPERIDIN-4-YL)-1,7-NAPHTHYRIDINE DERIVATIVES AND RELATED COMPOUNDS AS MODULATORS FOR SPLICING NUCLEIC ACIDS AND FOR THE TREATMENT OF PROLIFERATIVE DISEASES” (REMIX THERAPEUTICS INC., priority 2022, published 2025).
Where two headings read alike, the source gives them in different places.

How the values were obtained:
HTT mRNA = experiment: RT-qPCR splicing assay, HTT mRNA canonical (CJ) and alternative (AJ) junction; format: cell-based, human; conditions: Homo sapiens; for AC50: HTT alternative junction mRNA increase, read-out: HTT AJ (increase in alternative junction mRNA, AC50)
Method in brief: (§1)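 Both isoforms, CJ and AJ, read by qPCR from crude lysates of treated A673 or K562 cells; 24 h, 37 °C, maximum 10 uM. Normalization: housekeeper ΔCt, then DMSO ΔΔCt.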

MYB mRNA = experiment: RT-qPCR splicing assay, MYB mRNA canonical (CJ) and alternative (AJ) junction; format: cell-based, human; conditions: Homo sapiens; for AC50: MYB alternative junction mRNA increase, read-out: MYB AJ (increase in alternative junction mRNA, AC50)
Method in brief: as §1

SMN2 mRNA = experiment: RT-qPCR splicing assay, SMN2 mRNA; format: cell-based, human; conditions: Homo sapiens, canonical junction qPCR panel, Table 4; read-out: SMN2 IC50 (decrease in CJ mRNA levels)
Method in brief: as §1

Target C = experiment: RT-qPCR canonical junction panel assay, Target C mRNA; format: cell-based; conditions: Table 4, read-out: Target C IC50 (decrease in CJ mRNA levels)
Description: Compounds described herein were used to modulate RNA transcript abundance in cells. The expression of a target mRNA was measured by detecting the formation of an exon-exon junction in the canonical transcript (CJ). A compound mediated exon-inclusion event was detected by observing an increase in formation of a new junction with an alternative exon (AJ). Real-time qPCR assays were used to detect these splicing switches and interrogate the potency of various compounds towards different target genes. A high-throughput real time quantitative PCR (RT-qPCR) assay was developed to measure these two isoforms of the mRNA (CJ and AJ) for exemplary genes, such as HTT, SMN2, and MYB, together with a control housekeeping gene, GAPDH or GUSB or PPIA, used for normalization. Briefly, the A673 or K562 cell line was treated with various compounds described herein (e.g., compounds of Formula (I)). After treatment, the levels of the HTT, MYB, or SMN2 mRNA targets were determined from each sample of cell lysate by cDNA synthesis followed by qPCR.
The data analysis was performed by first determining the ΔCt vs the housekeeper gene. This ΔCt was then normalized against the DMSO control (ΔΔCt) and converted to RQ (relative quantification) using the 2^(−ΔΔCt) equation. The RQ were then converted to a percentage response by arbitrarily setting an assay window of 3.5 and 4.0 ΔCt for HTT-CJ and MYB-CJ respectively and an assay window of 9 and 3 ΔCt for HTT-AJ and MYB-AJ in 96 well format (50,000 K562 cells/well and 15,000 A673 cells per well) and an assay window of 3 and 4 ΔCt for HTT-CJ and MYB-CJ respectively and an assay window of 5 and 3 ΔCt for HTT-AJ and MYB-AJ respectively in 384 well format (8,000 K562 cells/well example). […] The percentage response was then fitted to the 4 parametric logistic equation to evaluate the concentration dependence of compound treatment. The increase in AJ mRNA is reported as AC50 (compound concentration having 50% response in AJ increase) while the decrease in CJ mRNA levels is reported as IC50 (compound concentration having […] in CJ decrease).
Additional studies were carried out for a larger panel of genes using the protocol provided above. The junction between flanking upstream and downstream exons was used to design canonical junction Qpcr assays. At least one of the forward primer, reverse primer or the CY5-labeled 5′ nuclease probe (with 3′ quencher such as ZEN/Iowa Black FQ) was designed to overlap with the exon junction to capture the CJ Mrna transcript. BLAST was used to confirm the specificity of the probeset and parameters suCH As melting temperature, GC content, amplicon size, and primer dimer formation are considered during their design. Data for the decrease in CJ Mrna levels for four exemplary genes (HTT, SMN2, MYB, and Target C) analyzed in this panel are reported as IC50 (compound concentration having […] in CJ decrease).

K562 cells = experiment: Cell Titer Glo 2.0 cell viability (toxicity) assay, K562; conditions: 500 cells/well, 72 hours
[1] = RT-qPCR, HTT canonical junction mRNA decrease, read-out: HTT CJ (decrease in canonical junction mRNA, IC50)
[2] = canonical junction qPCR panel, Table 4, read-out: HTT IC50 (decrease in CJ mRNA levels)
[3] = RT-qPCR, MYB canonical junction mRNA decrease, read-out: MYB CJ (decrease in canonical junction mRNA, IC50)
[4] = canonical junction qPCR panel, Table 4, read-out: MYB IC50 (decrease in CJ mRNA levels)

Compound | AC50 (HTT mRNA; RT-qPCR) [nM] | IC50 (HTT mRNA; [1]) [nM] | IC50 (HTT mRNA; [2]) [nM] | AC50 (MYB mRNA; RT-qPCR) [nM] | IC50 (MYB mRNA; [3]) [nM] | IC50 (MYB mRNA; [4]) [nM] | IC50 (SMN2 mRNA) [nM] | IC50 (Target C) [nM] | Effect of Exemplary Compounds on Cell Viability, K562 (K562 cells)
C[C@H]1CN(c2ccc3nc(-c4cc(F)c5nncn5c4)ncc3c2)C[C@H](C)N1 (single isomer, unassigned) [Compound 820] | > 10000 | > 10000 | > 10000 | 1000 to 10000 | 1000 to 10000 | 1000 to 10000 | 100 to 1000 | > 10000 | C (C represents 1000-9999 nM)
Cc1nc2c(F)cc(-c3ncc4cc(N5C[C@H](C)N[C@@H](C)C5)ccc4n3)cn2c1F (single isomer, unassigned) [Compound 822] | > 10000 | 1000 to 10000 | 1000 to 10000 | 1000 to 10000 | 100 to 1000 | 100 to 1000 | 100 to 1000 | 1000 to 10000 | B (B represents 100-1000 nM)
C[C@@H]1CN(c2ccc3nc(-c4cc(F)c5nn(C)cc5c4)ncc3c2)C[C@H](C)N1 [Compound 780, 6-[(3R,5S)-3,5-dimethylpiperazin-1-yl]-2-(7-fluoro-2-methylindazol-5-yl)quinazoline] | 1000 to 10000 | 1000 to 10000 | 1000 to 10000 | 100 to 1000 | 100 to 1000 | 100 to 1000 | < 100 | 1000 to 10000 | B (B represents 100-1000 nM)
Cc1nc(-c2cc(F)c3nn(C)cc3c2)nc2ccc(N3C[C@@H](C)N[C@@H](C)C3)cc12 [Compound 781, 6-[(3R,5S)-3,5-dimethylpiperazin-1-yl]-2-(7-fluoro-2-methylindazol-5-yl)-4-methylquinazoline] | > 10000 | > 10000 | > 10000 | 1000 to 10000 | 1000 to 10000 | 1000 to 10000 | 100 to 1000 | > 10000 | C (C represents 1000-9999 nM)
Cc1nc(-c2cc3cn(C)nc3cc2O)nc2ccc(N3C[C@@H](C)N[C@@H](C)C3)cc12 [Compound 782, 5-(6-((3S,5R)-3,5-dimethylpiperazin-1-yl)-4-methylquinazolin-2-yl)-2-methyl-2H-indazol-6-ol 2,2,2-trifluoroacetate] | > 10000 | 1000 to 10000 | 1000 to 10000 | 100 to 1000 | 100 to 1000 | 100 to 1000 | < 100 | > 10000 | B (B represents 100-1000 nM)
Cc1nc(-c2cc3cn(C)nc3c(C)c2O)nc2ccc(N3C[C@@H](C)N[C@@H](C)C3)cc12 [Compound 783, 5-{6-[(3R,5S)-3,5-dimethylpiperazin-1-yl]-4-methylquinazolin-2-yl}-2,7-dimethylindazol-6-ol] | > 10000 | > 10000 | > 10000 | 100 to 1000 | 100 to 1000 | 100 to 1000 | < 100 | > 10000 | B (B represents 100-1000 nM)
Cc1c(O)c(-c2nc(C(N)=O)c3cc(N4C[C@@H](C)N[C@@H](C)C4)ccc3n2)cc2cn(C)nc12 [Compound 784, 6-[(3R,5S)-3,5-dimethylpiperazin-1-yl]-2-(6-hydroxy-2,7-dimethylindazol-5-yl)quinazoline-4-carboxamide] | > 10000 | 1000 to 10000 | 1000 to 10000 | < 100 | < 100 | < 100 | < 100 | > 10000 | A (A represents <100 nM)
C[C@@H]1CN(c2ccc3nc(-c4cc5cn(C)nc5cc4O)nc(C(N)=O)c3c2)C[C@H](C)N1 [Compound 785, 6-((3R,5S)-3,5-dimethylpiperazin-1-yl)-2-(6-hydroxy-2-methyl-2H-indazol-5-yl)quinazoline-4-carboxamide 2,2,2-trifluoroacetate] | > 10000 | 1000 to 10000 | 1000 to 10000 | 100 to 1000 | < 100 | < 100 | < 100 | 1000 to 10000 | A (A represents <100 nM)
Cc1c(O)c(-c2ncc3cc(N4CCC(N5CCC5)CC4)ccc3n2)cc2cn(C)nc12 [Compound 786, 5-{6-[4-(azetidin-1-yl)piperidin-1-yl]quinazolin-2-yl}-2,7-dimethylindazol-6-ol] | 100 to 1000 | 100 to 1000 | 100 to 1000 | 100 to 1000 | 100 to 1000 | 100 to 1000 | < 100 | 100 to 1000 | B (B represents 100-1000 nM)
Cn1cc2cc(-c3ncc4cc(N5CCC(N6CCC6)CC5)ccc4n3)cc(F)c2n1 [Compound 787, 6-[4-(azetidin-1-yl)piperidin-1-yl]-2-(7-fluoro-2-methylindazol-5-yl)quinazoline] | 1000 to 10000 | 1000 to 10000 | 1000 to 10000 | 100 to 1000 | 100 to 1000 | 100 to 1000 | < 100 | 1000 to 10000 | B (B represents 100-1000 nM)
Cc1nc(-c2cc(F)c3nn(C)cc3c2)nc2ccc(N3CCC(N4CCC4)CC3)cc12 [Compound 788, 6-[4-(azetidin-1-yl)piperidin-1-yl]-2-(7-fluoro-2-methylindazol-5-yl)-4-methylquinazoline] | 1000 to 10000 | 1000 to 10000 | 1000 to 10000 | 100 to 1000 | 1000 to 10000 | 1000 to 10000 | < 100 | 1000 to 10000 | B (B represents 100-1000 nM)
